According to patent US5189169A (priority 1991, dated 1993):
Values joined by “and” are separate entries in the source; they are usually repeats but may differ in a detail not shown here. Equal values may be shown once.

Columns and labels:
[1] = test system: three broadleaf weeds: wild mustard, redroot pigweed and curly dock; assay: Pre-emergence herbicidal activity, broadleaf weeds (Table III); format: in vivo, Brassica kaber, Amaranthus retroflexus, Rumex crispus; details: 2.24 kg/ha, 2-3 weeks after treatment
Description: (§1) The herbicidal effect was observed by comparing the extent of weed control in test flats treated with the compounds against that occurring in similar non-treated control flats. All were applied at 3.57 lb/A (4 kg/ha) to pre-emergence and post-emergence screening flats. An 80 gal/A (748.3 1/ha) spray volume was utilized. Post-emergence flats were seeded 12 days prior to treatment. Pre-emergence flats were seeded one day prior to treatment. Overhead watering of pre-emergence flats and soil surface watering of post-emergence flats, so as to avoid wetting the foliage, were carried out for the duration of the test.
(§2) Weed seeds were planted in a flat at a seed depth of 0.5 inch (1.3 cm). Soil for flats was prepared using loam soil fortified with 17-17-17 fertilizer (N-P2 O5 -K2 O on a weight basis) and Captan 80W fungicide. The test weeds were as follows:
(§3) The spray solutions were prepared by dissolving 240 mg of test compound in 20 ml of acetone containing 1% polyoxyethylene sorbitan monolaurate emulsifier, then adding 20 ml of water to the resulting solution. The spray solutions were applied using a linear spray table. Pre-emergence flats are raised to the level of the post-emergence foliage canopy by setting the flats on a wooden block.
(§4) The degree of weed control was visually assessed and recorded as percentage control compared to the growth of the same species in an untreated check flat of the same age. The rating scale ranges from 0 to 100%, where 0 equals no effect with plant growth equal to the untreated control, and 100 equals complete kill.
(§5) Compounds 68 to 145 in Table I were tested generally similarly to Compounds No. 1 to 67 with the following differences: The rate of application was 2 lb/acre (2.24 kg/ha), no 6-day evaluations were made, and the weeds were:
(§6) Three broadleaf weeds: wild mustard, redroot pigweed (Amaranthus retroflexus) and curly dock (Rumex crispus).
(§7) Ratings were taken 2-3 weeks after treatment.

[2] = test system: four grassy weeds: wild oat, watergrass, green foxtail and crabgrass; assay: Pre-emergence herbicidal activity, grassy weeds (Table III); format: in vivo; details: 2.24 kg/ha, 2-3 weeks after treatment
Description: as §1, §2, §3, §4, §5
(§8) Four grassy weeds: wild oat, watergrass, green foxtail and crabgrass (Digitaria sanguinalis);
as §7

[3] = test system: three broadleaf weeds: wild mustard, redroot pigweed and curly dock; assay: Post-emergence herbicidal activity, broadleaf weeds (Table III); format: in vivo, Brassica kaber, Amaranthus retroflexus, Rumex crispus; details: 2.24 kg/ha, 2-3 weeks after treatment
Description: as §1, §2, §3, §4, §5, §6, §7

[4] = test system: four grassy weeds: wild oat, watergrass, green foxtail and crabgrass; assay: Post-emergence herbicidal activity, grassy weeds (Table III); format: in vivo; details: 2.24 kg/ha, 2-3 weeks after treatment
Description: as §1, §2, §3, §4, §5, §8, §7

[5] = test system: three grassy weeds (wild oat, watergrass, foxtail); design: species or system Avena fatua, Echinochloa crusgalli, Setaria viridis; details: in vivo
yellow nutsedge [6] = test system: yellow nutsedge; design: species or system Cyperus esculentus; details: in vivo
yellow nutsedge [7] = test system: yellow nutsedge; design: species or system Cyperus esculentus; details: in vivo; remark: listed apart in the source
[8] = test system: three broadleaf weeds (morning glory, mustard, velvetleaf); design: species or system Ipomoea purpurea, Brassica kaber, Abutilon theophrasti; details: in vivo
[9] = test system: three broadleaf weeds (morning glory, mustard, velvetleaf); design: species or system Ipomoea purpurea, Brassica kaber, Abutilon theophrasti; details: in vivo; remark: listed apart in the source

| SMILES | % Control, Pre-Emergence, BL Avg. [1] [%] | % Control, Pre-Emergence, GR Avg. [2] [%] | % Control, Post-Emergence, BL Avg. [3] [%] | % Control, Post-Emergence, GR Avg. [4] [%] | % Control, Pre-emergence, GR avg. [5] [%] | % Control, Post-emergence, NS (yellow nutsedge [6]) | % Control, Pre-emergence, NS (yellow nutsedge [7]) [%] | % Control, Post-emergence, BL avg. [8] | % Control, Pre-emergence, BL avg. [9] [%] |
| --- | --- | --- | --- | --- | --- | --- | --- | --- | --- |
| CCCCN(CCCC)P(=O)(SC(C)CC)N(CC)CC (centres unmarked) [Compound 102] | 40 | 30 | 99 | 70 | – | – | – | – | – |
| CCCN(CCC)P(=O)(SC(C)C)N1CC(CC)CCC1C (centres unmarked) [Compound 97] | 20 | 0 | 86 | 67 | – | – | – | – | – |
| C=CCN(CC=C)P(=O)(SCC)N(CCC)CCC (centres unmarked) [Compound 75] | 0 | 0 | 98 | 62 | – | – | – | – | – |
| CCCCN(CCCC)P(=O)(SCCC)N(C)C (centres unmarked) [Compound 108] | 13 | 15 | 98 | 76 | – | – | – | – | – |
| CCCCCSP(=O)(N(CCC)CCC)N(CCCC)CCCC (centres unmarked) [Compound 130] | 16 | 0 | 97 | 59 | – | – | – | – | – |
| CCCCSP(=O)(N(CCC)CCC)N(CCCC)CCCC (centres unmarked) [Compound 126] | 0 | 0 | 86 | 61 | – | – | – | – | – |
| CCCN(CCC)P(=O)(SC(C)(C)CC)N(CCC)CCC [Compound 81] | 0 | 0 | 83 | 66 | – | – | – | – | – |
| CCCCSP(=O)(N(CC)CC)N(CC)CC [Compound 69] | 0 | 13 | 87 | 30 | – | – | – | – | – |
| CCCSP(=O)(N(CCC)CCC)N(CCC)CCC [Compound 71] | 57 | 27 | 99 | 64 | – | – | – | – | – |
| CCCCN(CC)P(=O)(SC(C)CC)N(CCC)CCC (centres unmarked) [Compound 114] | 0 | 0 | 93 | 56 | – | – | – | – | – |
| CCCSP(=O)(N(CCC)CCC)N(C)c1ccc(OC)cc1C (centres unmarked) [Compound 65] | – | – | – | – | 0 | 0% | 0 | 70% and 76% | 0 |
| CCCCCSP(=O)(N(CCCC)CCCC)N(CCCC)CCCC [Compound 132] | 20 | 8 | 67 | 40 | – | – | – | – | – |
| CCCCN(CC)P(=O)(SC(C)C)N(CCC)CCC (centres unmarked) [Compound 91] | 3 | 0 | 99 | 84 | – | – | – | – | – |
| CCCCN(CCCC)P(=O)(SC(C)CC)N(CCC)CCC (centres unmarked) [Compound 127] | 0 | 0 | 99 | 59 | – | – | – | – | – |
| CCCSP(=O)(N(CCC)CCC)N(C)c1ccc(C(C)C)cc1 (centres unmarked) [Compound 58] | – | – | – | – | 0 | 0% | 0 | 70% and 61% | 0 |
| CCCCN(CCCC)P(=O)(SC(C)C)N(CC)CC (centres unmarked) [Compound 87] | 12 | 5 | 99 | 62 | – | – | – | – | – |
| CCCSP(=O)(N(CCC)CCC)N(C)c1cc(Cl)ccc1Cl (centres unmarked) [Compound 34] | – | – | – | – | 0 | 0% | 0 | 80% and 93% | 0 |
| C=CCSP(=O)(N(CC)CCCC)N(CCC)CCC (centres unmarked) [Compound 115] | 0 | 0 | 86 | 70 | – | – | – | – | – |
| CCCCN(CCCC)P(=O)(SCC)N(CC)CC (centres unmarked) [Compound 84] | 13 | 5 | 99 | 75 | – | – | – | – | – |
| CCCCN(c1ccc(F)cc1)P(=O)(SCCC)N(CCC)CCC (centres unmarked) [Compound 55] | – | – | – | – | 13 | 0% | 5 | 90% and 86% | 3 |
| CCCCN(CCC(C)C)P(=O)(SCCC)N(CCCC)CCC(C)C [Compound 52] | – | – | – | – | 0 | 0% | 0 | 90% and 86% | 0 |
| CCCSP(=O)(N(CCC)CCC)N(C)c1ccc(F)cc1C (centres unmarked) [Compound 64] | – | – | – | – | 3 | 0% and 5% | 0 | 85% and 93% | 0 |
| CCCSP(=O)(N(CCC)CCC)N(C)c1ccc(OC(F)(F)F)c(Cl)c1 (centres unmarked) [Compound 66] | – | – | – | – | 0 | 0% and 5% | 0 | 90% and 98% | 10 |
| CCCSP(=O)(N(CCC)CCC)N(C)c1ccccc1C(C)C (centres unmarked) [Compound 56] | – | – | – | – | 31 | 0% | 0 | 85% and 90% | 6 |
| CCCCN(CCCC)P(=O)(SCCC)N(C)c1ccc(Cl)cc1OC (centres unmarked) [Compound 18] | – | – | – | – | 0 | 0% | 0 | 30% and 60% | 0 |
| CCCCCN(CCCCC)P(=O)(SCCC)N(C)c1ccc(Cl)cc1 (centres unmarked) [Compound 17] | – | – | – | – | 57 | 10% and 0% | 0 | 50% and 43% | 33 |
| CCCN(CCC)P(=O)(Sc1cccc(Cl)c1)N(CCC)CCC [Compound 60] | – | – | – | – | 0 | 0% | 0 | 75% and 73% | 13 |
